Literature values as cited in patent publication US12201623B1, “Composition and method for preventing long-term COVID-19 morbidity” (priority 2021, dated 2025).

System: SARS-COV-2
Conditions: peripheral blood monocytes purified from healthy volunteers

Row | Structure (SMILES) | SARS-COV-2 replication
1 | CC(=O)N[C@@H](CS)C(=O)O [NAC] | suppressed
2 | COC1=C(OC)C(=O)C(CCCCCCCCCC[P+](c2ccccc2)(c2ccccc2)c2ccccc2)=C(C)C1=O [MitoQ] | suppressed
